Laboratory results taken from US20080103141A1, “New compounds” (Biovitrum, priority 2006, published 2008).

Target: T1, human GPR119 receptor (Homo sapiens, UniProt Q8TDV5)
T1 construct: expressed in transfected cells
T1 sequence (Q8TDV5 1-335): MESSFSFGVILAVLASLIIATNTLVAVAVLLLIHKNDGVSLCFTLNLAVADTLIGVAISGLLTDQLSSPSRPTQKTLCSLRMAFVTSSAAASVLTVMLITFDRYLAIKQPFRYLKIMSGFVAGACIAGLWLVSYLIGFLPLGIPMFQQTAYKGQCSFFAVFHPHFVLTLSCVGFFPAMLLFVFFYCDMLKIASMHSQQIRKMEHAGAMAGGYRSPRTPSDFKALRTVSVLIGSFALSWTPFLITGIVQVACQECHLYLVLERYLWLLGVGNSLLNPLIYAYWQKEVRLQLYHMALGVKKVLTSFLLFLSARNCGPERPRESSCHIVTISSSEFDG
Assay: Human GPR119 activity assay (cAMP HTRF in HEK293-hGPR119 cells)
Format: cell-based
Settings: stimulation of cAMP in HEK293 cells stably expressing human GPR119, 20 min at room temperature, read-out: Agonist potency at the human GPR119, EC50
Protocol: Human GPR119 Activity Assay
Agonists to the human GPR119 receptor were characterized by measuring human GPR119 receptor-mediated stimulation of cyclic AMP (cAMP) in HEK 293 cells expressing the human GPR119 receptor.
Briefly, cAMP content was determined using a cAMP kit based on HTRF technology (Homogeneous Time-Resolved Fluorescence, Cisbio Cat. no. 62AM2PEC). HEK293 cells stably expressing the human GPR119 receptor (HEK293-hGPR119 cells) were cultured in DMEM (Gibco # 31966-021) supplemented with 10% Bovine Calf Serum (Hyclone # SH30072.03), and, 500 μg/mL Hygromycin B (Roche Diagnostics 843555). At 80% confluency, cells were detached using Trypsine and aliquoted at a density of 5×10^6 cells/mL in freezing medium (DMEM (Gibco # 31966-021), 20% BCS (Hyclone # SH30072.03), 10% DMSO (Sigma #D2650) and stored at −135° C. On the experimental day, HEK293-hGPR119 cells were thawn and diluted to 0.4×10^6 cells/mL in assay buffer (1×HBSS (Gibco Cat. no. 14025-049), 20 mM Hepes (Gibco Cat. no. 15630-056), 0.1% BSA, pH 7.4) and incubated with test substances for 20 min at room temperature. After addition of HTRF reagents diluted in lysis buffer, the 96- or 384-well plates were incubated 1 hour, followed by measuring the fluorescence ratio at 665 nm/620 nm. Test substances was diluted in compound buffer (1×HBSS (Gibco Cat. no. 14025-049), 20 mM Hepes (Gibco Cat. no. 15630-056), 0.1% BSA, 2 mM IBMX (Sigma-Aldrich Cat. No. 17018, pH 7.4). The potency of the agonist was quantified by determine the concentration that cause 50% activation of hGPR119 evoked increase in cAMP, EC50.

| Structure (SMILES) | EC50 [nM] |
| --- | --- |
| CC(C)(C)OC(=O)N1CCC(COc2ncc(-c3ccc(S(C)(=O)=O)cc3)cn2)CC1 [EXAMPLE A2, tert-Butyl 4-[({5-[4-(methylsulfonyl)phenyl]pyrimidin-2-yl}oxy)methyl]piperidine-1-carboxylate] | 14 |
| CC(C)(C)OC(=O)N1CCC(CNc2ncc(-c3ccc(S(C)(=O)=O)cc3)cn2)CC1 [EXAMPLE A22, tert-Butyl 4-[({5-[4-(methylsulfonyl)phenyl]pyrimidin-2-yl}amino)methyl]piperidine-1-carboxylate] | 55 |
| CC(C)(C)OC(=O)N1CCC(NCc2cnc(-c3ccc(S(C)(=O)=O)cc3)nc2)CC1 [EXAMPLE B1, tert-Butyl 4-[({2-[4-(methylsulfonyl)phenyl]pyrimidin-5-yl}methyl)amino]piperidine-1-carboxylate] | 453 |
